According to patent US4831041A, “Imidazopyridine compounds and processes for preparation thereof” (Fujisawa Pharmaceutical Co., Ltd., priority 1986, dated 1989):

What was measured:
Stress Ulcer = assay: Inhibition on Stress Ulcer; format: in vivo, Sprague-Dawley rats; details: 32 mg/kg, oral, just before immobilization in water bath at 22° C.; seven hours; mean ulcer area vs control
Procedure: (B) Inhibition on Stress Ulcer
Five Sprague-Dawley rats weighing about 200 g were used per group. Each animal was immobilized in a small cage and put in a water bath allowing to respire. The temperature of the water bath kept at 22° C. The test compound was administered orally just before the immobilization. Seven hours later, the animals were sacrificed and their stomachs were removed. The stomach was then fixed with 2% formalin. The area of ulcers was measured for each animal. The mean area (mm^2) in the medicated animals was compared with that in the control animals.

ethanol ulcer = assay: Inhibition on ethanol ulcer; format: in vivo, Sprague-Dawley rats; details: 32 mg/kg, oral, 30 minutes before absolute ethanol (5 ml/kg); rats sacrificed one hour later; mean ulcer area vs control
Procedure: (A) Inhibition on ethanol ulcer
Five male Sprague-Dawley rats, aged 7 weeks and weighing about 200 g, were used per group for the study on ethanol ulcer after the fast for 24 hours.
Test compound was suspended in 0.1% methylcellulose aqueous solution, and the suspension (5 ml/kg) was orally given to each rat.
The control group was given a vehicle, i.e. 0.1% methylcellulose aqueous solution (5 ml/kg), alone in the same way.
Absolute ethanol (5 ml/kg) was orally administered 30 minutes after dosing with test compound, and one hour later, the rats were sacrificed and their stomachs were removed. The area of ulcers of each rat was measured. The mean area […] in the medicated group was compared with that in the control group.

Compound | Inhibition % (stress ulcer area) (Stress Ulcer) [%] | Inhibition % (ethanol ulcer area) (ethanol ulcer) [%]
C#CCc1c(C)nc2c(OCc3c(C)cccc3NC(C)=O)cccn12 [Test Compound (2), 8-(2-Acetamido-6-methylbenzyloxy)-2-methyl-3(2-propynyl)imidazo[1,2-a]pyridine] | 100 | 
C#CCc1c(C)nc2c(OCc3c(C)cccc3NC(N)=O)cccn12 [Test Compound (3), 2-methyl-8-(2-methyl-6-ureidobenzyloxy)-3-(2propynyl)imidazo[1,2-a]pyridin] | 100 | 
C#CCc1c(C)nc2c(OCc3c(C)cccc3NC(=O)OC)cccn12 [Test Compound (1), 8-(2-Methoxycarbonylamino-6-methylbenzyloxy)-2-methyl-3-(2-propynyl)imidazo[1,2-a]pyridine] | 100 | 93.2
C#CCc1c(C)nc2c(OCc3c(C)cccc3NC(N)=S)cccn12 [Test Compound (4), 2-Methyl-8-(2-methyl-6-thioureidobenzyloxy)-3(2-propynyl)imidazo[1,2-a]pyridine] | 100 | 
